Patent publication US20100113504A1, “AMIDE COMPOUNDS AND THEIR USE AS ANTITUMOR AGENTS” (SIGMA-TAU INDUSTRIE FARMACEUTICHE RIUNITE S.P.A., priority 2007, published 2010)
Where a name gives a salt, the structure may show the parent alone. Read-outs that look alike come from different tables or passages of the source.

Key:
Format in all cases: cell-based
[1] = system: NB4 human promyelocitic leukaemia; assay: Cytotoxicity (sulphorodamine B) on NB4 tumor cells; conditions: then 48 h in drug-free medium, read-out: IC50 ± SD, NB4
Protocol: To test the effects of the compounds on cell growth, NB4 human promyelocitic leukaemia, NCI-H460 non-small cell carcinoma cells and HCT-116 human colon carcinoma cells were used. NB4 and NCI-H460 tumor cells were grown RPMI 1640 containing 10% fetal bovine serum (GIBCO), whereas HCT-116 tumor cells were grown in McCoy's 5A containing 10% fetal bovine serum (GIBCO).
(§1) Tumor cells were seeded in 96-well tissue culture plates at approximately 10% confluence and were allowed to attach and recover for at least 24 h. […] The plates were incubated for 24 h at 37° C. At the end of the treatment, for NB4 tumor cells in suspension, the procedure was performed as follows: medium culture was removed by centrifugation of the plates at 1600×g for 10 min and the surnatant was removed. 250 μl PBS were added, then the plates were centrifuged at 1600×g for 10 min, the surnatant was removed. 200 μl/well of medium culture RPMI 1640 containing 10% FCS were added and the plates were incubated at 37° C. for other 48 h. The plates were centrifuged again at 1600×g for 10 min, the medium culture was removed and 200 μl PBS and 50 μl of cold 80% TCA were added. The plates were incubated on ice for at least 1 h. TCA was removed, the plates were washed 3 times for immersion in distilled-water and dried before on paper, then in a thermostater at 40° C. Subsequently 200 μl of 0.4% sulphorodamine B in 1% acetic acid were added. The plates were incubated at room temperature for other 30 min. Sulphorodamine B was removed, the plates were washed for immersion in 1% acetic acid for 3 times, then they were washed and dried on paper. 200 μl Tris 10 mM were added, the plates were kept under stirring for 20 min. The survival cell was determined as optical density by a Multiskan spectrofluorimeter at 540 nm. For the tumor cells in adhesion (NCI-H460 and HCT-116), the procedure was as above mentioned, except that the at the end of the treatment, the plates were washed by remotion of the surnatant and addition of PBS 3 times and not by centrifugation. Also the last day of the assay, the surnatant was removed without centrifugation.
(§2) The amount of cells killed was calculated as the percentage decrease in sulphorodamine B binding compared with control cultures.

[2] = system: NCI-H460 non-small cell carcinoma cells; assay: Cytotoxicity (sulphorodamine B) on NCI-H460 tumor cells; conditions: 24 h treatment, then 48 h in drug-free medium, read-out: IC50 ± SD, NCI-H460
Protocol: as §1, with “200 μl/well of medium culture RPMI 1640 containing 10% FCS were added and the plates were incubated at 37° C. for other 48 h.” left out, “For the tumor cells in adhesion (NCI-H460 and HCT-116), the procedure was as above mentioned, except that the at the end of the treatment, the plates were washed by remotion of the surnatant and addition of PBS 3 times and not by centrifugation.” left out
as §2

[3] = system: HCT-116 human colon carcinoma cells; assay: Cytotoxicity (sulphorodamine B) on HCT-116 tumor cells; conditions: HCT-116 cells, 24 h treatment, then 48 h in drug-free medium, read-out: IC50 ± SD, HCT-116
Protocol: as §1, with “200 μl/well of medium culture RPMI 1640 containing 10% FCS were added and the plates were incubated at 37° C. for other 48 h.” left out, “For the tumor cells in adhesion (NCI-H460 and HCT-116), the procedure was as above mentioned, except that the at the end of the treatment, the plates were washed by remotion of the surnatant and addition of PBS 3 times and not by centrifugation.” left out
as §2

[4] = system: NB4, NCI-H460 and HCT-116 tumor cells; assay: Cytotoxicity summarised over the three tumor cell lines; conditions: Homo sapiens; mean over NB4, NCI-H460, HCT-116; 24 h of treatment
Protocol: as §1, with “200 μl/well of medium culture RPMI 1640 containing 10% FCS were added and the plates were incubated at 37° C. for other 48 h.” left out, “For the tumor cells in adhesion (NCI-H460 and HCT-116), the procedure was as above mentioned, except that the at the end of the treatment, the plates were washed by remotion of the surnatant and addition of PBS 3 times and not by centrifugation.” left out
as §2

[5] = Homo sapiens, NB-4, 24 h treatment

Row | SMILES | IC50 [1, 5] | IC50 ([2]; Homo sapiens) | IC50 ([3]; Homo sapiens) | IC50 ([1]; 24 h treatment) | IC50 [2] | IC50 [3] | IC50 [4]
1 | COC(CCCCCCC(=O)NO)C(=O)Nc1ccccc1 (racemic) [Compound 13b, (±)-2-Methoxynonanedioic acid 9-hydroxyamide 1-phenylamide] | 0.8 ± 0.03 µM | 1.9 ± 0.1 µM | 1.1 ± 0.009 µM |  |  |  | 
2 | COc1ccc(CO[C@@H](CCCCCC(=O)NO)C(=O)Nc2ccccc2)cc1 [(S)-9d, 2-(S)-(4-Methoxybenzyloxy)octanedioic acid 8-hydroxyamide 1-phenylamide] |  |  |  | 0.1 ± 0.002 µM | 0.4 ± 0.03 µM | 0.2 ± 0.007 µM | 
3 | COC(CCCCCC(=O)NO)C(=O)Nc1ccccc1 (racemic) [Compound 9b, (±)-2-Methoxyoctanedioic acid 8-hydroxyamide 1-phenylamide] | 0.5 ± 0.03 µM | 1.2 ± 0.1 µM | 0.9 ± 0.04 µM |  |  |  | < 1 µM
4 | COc1ccc(COC(CCCCCC(=O)NO)C(=O)Nc2ccc(OC)cc2)cc1 (racemic) [Compound 9m, (±)-2-(4-Methoxybenzyloxy)octanedioic acid 8-hydroxyamide 1-[(4-methoxyphenyl)amide]] | 0.1 ± 0.04 µM | 0.3 ± 0.04 µM | 0.3 ± 0.01 µM |  |  |  | < 1 µM
5 | O=C(CCCCCC(O)C(=O)Nc1ccccc1)NO (racemic) [Compound 9a, (±)-2-Hydroxyoctanedioic acid 8-hydroxyamide 1-phenylamide] | 0.5 ± 0.03 µM | 1 ± 0.09 µM | 0.7 ± 0.02 µM |  |  |  | < 1 µM
6 | O=C(CCCCCC(OCc1ccc(C(F)(F)F)cc1)C(=O)Nc1ccccc1)NO (racemic) [Compound 9e, (±)-2-(4-Trifluoromethylbenzyloxy)octanedioic acid 8-hydroxyamide 1-phenylamide] | 0.2 ± 0.002 µM | 0.5 ± 0.06 µM | 0.4 ± 0.03 µM |  |  |  | < 1 µM
7 | COc1ccc(COC(CCCCCC(=O)NO)C(=O)Nc2ccccc2)cc1 (racemic) [Compound 9d, (±)-2-(4-Methoxybenzyloxy)octanedioic acid 8-hydroxyamide 1-phenylamide] | 0.1 ± 0.01 µM | 0.5 ± 0.02 µM | 0.2 ± 0.006 µM |  |  |  | < 1 µM
8 | C=CCOC(CCCCCC(=O)NO)C(=O)Nc1ccccc1 (racemic) [Compound 9c, (±)-2-Allyloxyoctanedioic acid 8-hydroxyamide 1-phenylamide] | 0.4 ± 0.02 µM | 1.8 ± 0.1 µM | 1 ± 0.1 µM |  |  |  | 
9 | CO[C@@H](CCCCC(=O)NO)C(=O)Nc1ccccc1 [(S)-5b, 2-(S)-Methoxyheptanedioic acid 7-hydroxyamide 1-phenylamide] | 3.5 ± 0.3 µM | 7.8 ± 0.5 µM | 6.8 ± 0.3 µM |  |  |  | 
10 | COc1ccc(CO[C@H](CCCCCC(=O)NO)C(=O)Nc2ccccc2)cc1 [(R)-9d, 2-(R)-(4-Methoxybenzyloxy)octanedioic acid 8-hydroxyamide 1-phenylamide] | 0.07 ± 0.01 µM | 0.5 ± 0.03 µM | 0.4 ± 0.01 µM |  |  |  | < 1 µM
11 | C=C(C)COC(CCCCC(=O)NO)C(=O)Nc1ccccc1 (racemic) [Compound 5d, (±)-2-(2-Methylallyloxy)heptanedioic acid 7-hydroxyamide 1-phenylamide] | 9.6 ± 0.8 µM | 14.7 ± 1.6 µM | 12.4 ± 0.2 µM |  |  |  | 
12 | O=C(CCCCCC1OCCCCCCOc2ccncc2NC1=O)NO (racemic) [Compound 46, (±)-6-(14-Oxo-6,7,8,9,10,11,14,15-octahydro-13H-5,12-dioxa-2,15-diazabenzocyclotridecen-13-yl)hexanoic acid hydroxyamide] |  | 20 µM | 13 ± 1.7 µM |  |  |  | 
13 | COc1ccc(COC(CCCCCCC(=O)NO)C(=O)Nc2ccccc2)cc1 (racemic) [Compound 13d, (±)-2-(4-Methoxybenzyloxy)nonanedioic acid 9-hydroxyamide 1-phenylamide] | 0.3 ± 0.03 µM | 0.7 ± 0.03 µM | 0.5 ± 0.1 µM |  |  |  | < 1 µM
14 | O=C(CCCCC[C@@H]1NCCCCCCOc2ccccc2NC1=O)NO [(S)-42a, 6-(6-Oxo-5,6,7,8,9,10,11,12,13,14-decahydro-15-oxa-5,8-diazabenzocyclotridecen-7-(S)yl)hexanoic acid hydroxyamide hydrochloride] |  | 1.1 ± 0.07 µM | 0.8 ± 0.07 µM |  |  |  | 
15 | O=C(CCCCCCC(O)C(=O)Nc1ccccc1)NO (racemic) [Compound 13a, (±)-2-Hydroxynonanedioic acid 9-hydroxyamide 1-phenylamide] | 0.9 ± 0.1 µM | 3.6 ± 0.8 µM | 1.6 ± 0.05 µM |  |  |  | 
16 | COc1cc2cc(c1)COc1ccccc1NC(=O)C(CCCCCC(=O)NO)OCC=C2 (racemic) [Compound 32, (±)-6-(19-Methoxy-11-oxo-3,13-dioxa-10-azatricyclo[15.3.1.04,9]henicosa-1(21),4(9),5,7,15,17,19-heptaen-12-yl)hexanoic acid hydroxyamide] |  | 0.9 ± 0.08 µM | 0.4 ± 0.03 µM |  |  |  | < 1 µM
17 | C=CCOC(CCCCC(=O)NO)C(=O)Nc1ccccc1 (racemic) [Compound 5c, (±)-2-Allyloxyheptanedioic acid 7-hydroxyamide 1-phenylamide] | 4.5 ± 0.4 µM | 8.6 ± 0.3 µM | 4.3 ± 0.2 µM |  |  |  | 
18 | C=CCOC(CCCCCCC(=O)NO)C(=O)Nc1ccccc1 (racemic) [Compound 13c, (±)-2-Allyloxynonanedioic acid 9-hydroxyamide 1-phenylamide] | 0.6 ± 0.06 µM | 1.5 ± 0.3 µM | 1 ± 0.05 µM |  |  |  | 
19 | COc1ccc(COC(CCCCC(=O)NO)C(=O)Nc2ccccc2)cc1 (racemic) [Compound 5g, (±)-2-(4-Methoxybenzyloxy)heptanedioic acid 7-hydroxyamide 1-phenylamide] | 1 ± 0.1 µM | 2 ± 0.3 µM | 1.3 ± 0.06 µM |  |  |  | 
20 | O=C(CCCCC(O)C(=O)Nc1ccccc1)NO (racemic) [Compound 5a, (±)-2-Hydroxyheptanedioic acid 7-hydroxyamide 1-phenylamide] | 3.7 ± 0.6 µM | 13.7 ± 2.6 µM | 8.6 ± 0.2 µM |  |  |  | 
21 | CCCOC(CCCCC(=O)NO)C(=O)Nc1ccccc1 (racemic) [Compound 5e, (±)-2-Propoxyheptanedioic acid 7-hydroxyamide 1-phenylamide] | 4.1 ± 0.3 µM | 10.4 ± 1.2 µM | 8.5 ± 0.3 µM |  |  |  | 
22 | CO[C@H](CCCCC(=O)NO)C(=O)Nc1ccccc1 [(R)-5b, 2-(R)-Methoxyheptanedioic acid 7-hydroxyamide 1-phenylamide] | 4 ± 0.6 µM | 9.6 ± 0.5 µM | 7.8 ± 0.5 µM |  |  |  | 
23 | COC(CCCCC(=O)NO)C(=O)Nc1ccccc1 (racemic) [Compound 5b, (±)-2-Methoxyheptanedioic acid 7-hydroxyamide 1-phenylamide] | 3.5 ± 0.4 µM | 5.7 ± 0.5 µM | 5 ± 0.1 µM |  |  |  | 
24 | O=C(CCCCC(OCc1ccccc1)C(=O)Nc1ccccc1)NO (racemic) [Compound 5f, (±)-2-Benzyloxyheptanedioic acid 7-hydroxyamide 1-phenylamide] | > 5 µM | 5.5 ± 0.6 µM | 2.4 ± 0.06 µM |  |  |  | 
25 | COc1cccc(COC(CCCCCC(=O)NO)C(=O)N(Cc2cccc(OC)c2)c2ccccc2)c1 (racemic) [Compound 9i, (±)-2-(3-methoxybenzyloxy)octanedioic acid 8-hydroxyamide 1-[(3-methoxybenzyl)phenylamide]] |  |  |  | 4 ± 0.7 µM | 7.4 ± 0.5 µM | 7.5 ± 0.4 µM | 
